Test results reported in US5349127A, “Expression of herbicide metabolizing cytochromes P450” (priority 1992, dated 1994).

Legend:
[1] = test system: S. griseolus ATCC 11796, 10001 added; test: Percent conversion of herbicides by cultures (Example 16); assay type: in vitro ADME, Streptomyces griseolus; conditions: 3.0 mg herbicide and 3.0 mg 10001 in 25 ml broth; 24 hours
Method: (§1) Separate cultures (50 ml) inoculated with S. lividans C37, S. lividans transformed with pCAO200SU1-FeS-B#9, S. griseolus ATCC11796, S. griseolus PH2003 transformed with pIJ425, or S. ariseolus PH2003 transformed with pCS325 were cultured in sporulation broth for 18 hours at 30° C. with shaking. Each culture was then resuspended in 25 ml fresh sporulation broth and 3.0 mg herbicide added. In the case of cultures of S. griseolus ATCC11796, a second culture containing herbicide and 3.0 mg 10001 was also prepared. Each culture was reincubated for 24 hours, then an aliquot of the medium was withdrawn and analyzed by HPLC. The percent conversion of herbicide was determined.

[2] = test system: S. griseolus ATCC 11796; test: as above; assay type: in vitro ADME, Streptomyces griseolus; conditions: 3.0 mg herbicide in 25 ml broth; 24 hours
Method: as §1

[3] = test system: S. griseolus PH2003 pCS325; test: as above; assay type: in vitro ADME, Streptomyces griseolus; conditions: 3.0 mg herbicide in 25 ml broth; 24 hours
Method: as §1

[4] = test system: S. griseolus PH2003 pIJ425; test: as above; assay type: in vitro ADME, Streptomyces griseolus; conditions: 3.0 mg herbicide in 25 ml broth; 24 hours
Method: as §1

[5] = test system: S. griseolus ATCC 11796; test: Western blot for cytochrome P450SU1 after induction with 10001 (Example 3); assay type: cell-based, Streptomyces griseolus; conditions: 36 mg of 10001 added six hours before harvesting; not found without 10001
Method: Western blot analysis of proteins is performed by separating the proteins by SDS polyacrylamide gel electrophoresis (Laemmli, Nature 227: 680, 1970, herein incorporated by reference) and then transferring the proteins to nitrocellulose and detecting the protein of interest with antibody specific for the protein as described by Towbin et al., Proc. Natl. Acad. Sci. U.S.A. 76: 4350-4354 (1979) and Bio-Rad bulletin 885 85-0335. (Bio-Rad Laboratories, Richmond, CA 94804), each herein incorporated by reference. Antiserum to cytochrome P450SU1 was that described by O'Keefe et al., Recent Advances in Phytochemistry 21: 151-173 (1987), herein incorporated by reference.
S. lividans containing pCAO200, containing pCAO200SU1-FeS-B#9 and S. lividans containing […] were grown separately in 400 ml of YEME broth with-shaking at 30° C. for approximately 36 hours. S. griseolus ATCC 11796 was grown in 400 ml of sporulation broth for approximately 30 hours. Six hours before harvesting the cells from the cultures, 200 ml of YEME was added to the S. lividans cells. Six hours before harvesting, the S. griseolus culture was split into two 200 ml aliquots and 100 ml of fresh sporulation broth was added to each. […] Cytochrome P450SU1 was detected in the cultures of S. lividans transformed with either pCAO200SU1-FeS-B#9 or pCAO200SU1#12 and in the S. griseolus ATCC 11796 culture induced with 10001.

[6] = test system: S. griseolus ATCC11796; test: Metabolism of 10015 analogs to 10014 (Example 17); assay type: in vitro ADME, Streptomyces griseolus
Method: Cultures of S. griseolus ATCC11796 were cultivated in sporulation-broth (50ml) at 30° C. with shaking for 17 hours. Each culture was then resuspended in 25 ml fresh sporulation broth, 3.0 mg sulfonylurea was added, and the culture reincubated for 4 days. Aliquots of the medium were then analyzed by HPLC. Formation of 10014 was measured based on similarity of retention time and UV spectrum of the test metabolite to that formed by metabolism of 10015.

[7] = test system: transgenic Nicotiana tabacum cv. Xanthi plants; test: In vitro pollen germination after spraying 10015 on tobacco with anther-specific P450SU1 (Example 28); assay type: in vivo
Method: Application of compound 10015 was as follows. The tapetal cells of the anther surround the developing pollen and are instrumental in supporting the development of mature pollen. Thus production of a toxin in the tapetal cells was expected to disrupt the development of normal mature pollen. The nontoxic compound 10015 was sprayed onto flowering transgenic plants that had anther-specific expression of P450SU1 mRNA. […] The 10015 was first dissolved in up to 0.8 ml of 0.01 N ammonium hydroxide and then diluted into AGWT (90.2% Acetone:4.8% Glycerol:4.8% Water:0.24% Tween 20 by volume). Little effect was seen when rates of less than 32 g/ha were applied. At 32 g/ha and above, effects were seen on the ability of pollen to germinate in vitro. Newly opened buds were collected at time intervals between four and 23 days after spraying. The anthers were removed and pollen was brushed into Brewbaker and Kwak medium (15% sucrose, 200 ppm calcium nitrate, 100 ppm boric acid). Growth of tubes from the pollen, indicating germination, was assessed after four hours of incubation by microscopic observation.

Structure (SMILES) | Percent Conversion [1] [%] | Percent Conversion [2] [%] | Percent Conversion [3] [%] | Percent Conversion [4] [%] | Cytochrome P450SU1 in culture (Western blot) [5] | metabolism by P450SU1 to phytotoxic 10014 [6] | pollen germination in vitro ([7]; A-T-SU1 plants 41A and 56 A, 32 g/ha, 7 to 11 days after application) [%] | pollen germination in vitro ([7]; A-T-SU1 plants 41A and 56 A, 32 g/ha, through 18 days on one plant, 13 days on the other) | pollen germination in vitro ([7]; plant 28A, 100 g/ha, 21 days) | pollen germination in vitro ([7]; plant 38A, 100 g/ha, 14 days, varying between buds)
CCOC(=O)c1ccccc1S(=O)(=O)NC(=O)Nc1nc(Cl)cc(OC)n1 [compound 10001, N-[(4-chloro-6-methoxy-pyrimidin-2-yl)aminocarbonyl]-2-ethoxycarbonylbenzenesulfonamide] | 100 | 100 | 100 | 100 | detected | – | – | – | – | –
COc1cc(OC)nc(NC(=O)NS(=O)(=O)c2cccc3c2S(=O)(=O)N(C(C)C)C3)n1 [compound 10015] | – | – | – | – | – | metabolized | 0 | less than 0.1% | less than 0.1% | 1-25%
